The values that follow come from patent publication EP0405997B1, “Antibiotic agent” (Merck & Co., Inc., priority 1989, dated 1991).

Converted amounts (≈) assume the structure as drawn. Read-outs that look alike come from different tables or passages of the source. Numbered stars: 1 amine (or outer) side, 2 acyl side, 3 side chain; on linkers, the order of the positions; unused ones are H or OH. Bridge positions count the residues as written; N and C are the ends. Square brackets hold non-standard residues; d marks the D form. Peptide text beside a SMILES is read from it. * marks the point of attachment. Orn(4R-OH,5R-OH) = O=C([C@H](C[C@@H](O)[C@@H](O)N[*:3])N[*:1])[*:2]; Tetradecanoyl(10R,12S-Me2) = CC[C@H](C)C[C@H](C)CCCCCCCCC(=O)*; hTyr(3S-OH,4S-OH) = N[C@H](C(=O)O)[C@H](O)[C@@H](O)c1ccc(O)cc1; Gln(3R-OH) = NC(=O)C[C@@H](O)[C@H](N)C(=O)O; Pro(3S-OH) = O=C(O)[C@H]1NCC[C@@H]1O; Hyp = O=C(O)[C@@H]1C[C@@H](O)CN1

In one data set the test system is Pneumocystis carinii. The note with it: dexamethasone-immunosuppressed male C3H/Hej mice; 0.5 mg/kg intraperitoneally twice daily for two weeks; lung tissue.
A short description of data set [1]: Solubility in organic solvents. It counts as physicochemical. The note with it: methanol, ethanol, dimethylformamide, dimethyl sulfoxide, ethyl acetate and the like.
The test system of another data set is Candida tropicalis. The data set is described as follows: microbe, parasite or virus in culture. As to conditions: read-out: Minimum Fungicidal Concentration. On the procedure:
(§1) In carrying out the assay, Compound I was solubilized in 10 percent dimethyl sulfoxide (DMSO) and diluted to 2560 µg/ml. The compounds were further diluted to 256 µg/ml in YNBD. Then 0.15 ml of the suspension was dispensed to the first row of a 96-well plate (each well containing 0.15 ml of YNDB) resulting in a drug concentration of 128 µg/ml. Two-fold dilutions were then made to obtain final drug concentrations ranging from 128 to 0.06 µg/ml.
(§2) The yeast cultures, maintained on Sabouraud dextrose agar were transferred to YM broth (Difco) and incubated overnight at 35°C with shaking (250 rpm). After incubation, each culture was diluted in sterile water to yield a final concentration of 1-5 x 10⁶ colony forming units (CFU)/ml.
(§3) 96-well microplates were inoculated using a MIC-2000 (Dynotech) which delivers 1.5 µl per well yielding a final inoculum per well of 1.5-7.5 x 10³ cells. The microplates were incubated at 35°C for 24 hours. The minimum inhibitory concentrations (MICs) were recorded as the lowest concentrations of drug showing no visible growth.
(§4) After recording the MIC, the plates were shaken to resuspend the cells. Thereafter, 1.5 µl samples from the wells in the 96-well microplate were transferred to a single well tray containing Sabouraud dextrose agar. The inoculated trays were incubated 24 hours at 28°C and then read. The MFC is defined as the lowest concentration of drug showing no growth or less than 4 colonies per spot.

For the next data set, the system named is Candida albicans. The data set is described as follows: microbe, parasite or virus in culture. On the procedure: as §1, §2, §3, §4
For a further data set, the system named is Candida parapsilosis. Kind of data set: microbe, parasite or virus in culture. On the procedure: as §1, §2, §3, §4

Protocol for Pneumocystis carinii: In a representative study ten male C3H/Hej mice, weighing 22-24 gms. each, were immunosuppressed by the addition of dexamethasone to the drinking water (8.0 mg/L) for six weeks to induce the development of P. carinii infections. To enhance the infection the mice were also maintained on a low protein diet. At the beginning of the seventh week the mice were divided into two groups. Both groups continued to receive dexamethasone in the drinking water and low protein diet for the remainder of the study. Mice in Group I were injected intraperitoneally twice daily with 0.5 ml of a 20% DMSO solution as a vehicle control. […] The treatment period lasted two weeks.
At the end of the treatment period (a total of eight weeks immunosuppression) the animals were sacrificed and the lung tissues removed. The tissue was then processed to determine the number of cysts for each animal.

With `CC[C@H](C)C[C@H](C)CCCCCCCCC(=O)N[C@H]1C[C@@H](O)[C@@H](O)NC(=O)[C@@H]2[C@@H](O)CCN2C(=O)[C@H]([C@H](O)CC(N)=O)NC(=O)[C@H]([C@H](O)[C@@H](O)c2ccc(O)cc2)NC(=O)[C@@H]2C[C@@H](O)CN2C(=O)[C@H]([C@@H](C)O)NC1=O` [Compound I, 1-[4,5-dihydroxy-N²-(10,12-dimethyl-1-oxotetradecyl)-ornithine]-5-(3-hydroxyglutamine)-6-(3-hydroxyproline)echinocandin B] ({Tetradecanoyl(10R,12S-Me2)}-[Orn(4R-OH,5R-OH)]T[Hyp][hTyr(3S-OH,4S-OH)][Gln(3R-OH)][Pro(3S-OH)]; lactam 1-C), in the data set with Pneumocystis carinii, the “reduced the number of cysts as compared to the control animals” value was 81%. Moreover, in data set [1], the solubility entry is recorded as “soluble in organic solvents”. In addition, the MFC in the data set on Candida tropicalis came to 2 µg/mL (≈ 1.88 µM); in the data set with Candida albicans (read-out: Minimum Fungicidal Concentration, Candida albicans MY 1028, YNBD medium), 1 µg/mL (≈ 0.939 µM); in the data set on Candida albicans (read-out: Minimum Fungicidal Concentration, Candida albicans MY 1208, YNBD medium), 0.5 µg/mL (≈ 0.469 µM); in the data set on Candida albicans (read-out: Minimum Fungicidal Concentration, Candida albicans MY 1585, YNBD medium) it was 0.5 µg/mL (≈ 0.469 µM); in the data set with Candida albicans (read-out: Minimum Fungicidal Concentration, Candida albicans MY 1750, YNBD medium) it was 0.25 µg/mL (≈ 0.235 µM); in the data set with Candida albicans (read-out: Minimum Fungicidal Concentration, Candida albicans MY 1783, YNBD medium), 0.5 µg/mL (≈ 0.469 µM). Further, in the data set on Candida parapsilosis (Lodderomyces parapsilosis, read-out: Minimum Fungicidal Concentration), the MFC was 8 µg/mL (≈ 7.51 µM). For the same molecule, the “Minimum Fungicidal Concentration” value in the data set on Candida parapsilosis (Candida parapsilosis MY 1010, YNBD medium) came out at 8.0 µg/mL.
